PMC12520410, “A FtsZ inhibitor-acinetobactin conjugate with enhanced cellular uptake in Acinetobacter baumannii acts synergistically in combination with PBP3-targeting antibiotics” (PLOS One, 2025)

Columns and labels:
Type in all cases: binding
[1] = molecular target: T1, AbFtsZ (A. baumannii FtsZ) (Acinetobacter baumannii, UniProt V5V8B6); experiment: fluorescence anisotropy titration of RUP2 with purified AbFtsZ
[2] = molecular target: T1, AbFtsZ (A. baumannii FtsZ); experiment: fluorescence anisotropy titration; also inhibits GTP-dependent polymerization (light scattering)
[3] = molecular target: BauA (Acinetobacter baumannii, UniProt Q76HJ9); experiment: fluorescence anisotropy titration of the RUP7_2-Fe3+ complex with purified BauA
Chain of BauA (Q76HJ9 entry or part of it): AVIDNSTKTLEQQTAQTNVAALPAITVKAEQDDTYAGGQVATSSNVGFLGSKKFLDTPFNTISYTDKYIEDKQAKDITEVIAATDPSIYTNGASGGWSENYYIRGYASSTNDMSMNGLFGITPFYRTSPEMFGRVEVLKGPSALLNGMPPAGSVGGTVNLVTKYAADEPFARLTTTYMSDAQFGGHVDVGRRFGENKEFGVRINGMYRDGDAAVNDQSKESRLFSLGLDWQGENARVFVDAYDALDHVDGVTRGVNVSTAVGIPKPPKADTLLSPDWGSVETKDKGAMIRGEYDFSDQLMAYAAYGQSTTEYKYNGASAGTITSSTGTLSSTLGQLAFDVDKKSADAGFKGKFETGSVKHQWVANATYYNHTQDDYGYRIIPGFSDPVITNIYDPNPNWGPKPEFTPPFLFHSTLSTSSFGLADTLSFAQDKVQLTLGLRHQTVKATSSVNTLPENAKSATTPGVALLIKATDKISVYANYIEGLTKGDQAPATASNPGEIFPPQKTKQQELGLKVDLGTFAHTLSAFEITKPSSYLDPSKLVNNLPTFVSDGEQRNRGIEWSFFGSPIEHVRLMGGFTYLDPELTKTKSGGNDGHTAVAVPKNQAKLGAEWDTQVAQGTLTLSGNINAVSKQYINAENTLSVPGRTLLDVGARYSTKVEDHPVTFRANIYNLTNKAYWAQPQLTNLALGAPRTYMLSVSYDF

T1 sequence (V5V8B6 entry or part of it): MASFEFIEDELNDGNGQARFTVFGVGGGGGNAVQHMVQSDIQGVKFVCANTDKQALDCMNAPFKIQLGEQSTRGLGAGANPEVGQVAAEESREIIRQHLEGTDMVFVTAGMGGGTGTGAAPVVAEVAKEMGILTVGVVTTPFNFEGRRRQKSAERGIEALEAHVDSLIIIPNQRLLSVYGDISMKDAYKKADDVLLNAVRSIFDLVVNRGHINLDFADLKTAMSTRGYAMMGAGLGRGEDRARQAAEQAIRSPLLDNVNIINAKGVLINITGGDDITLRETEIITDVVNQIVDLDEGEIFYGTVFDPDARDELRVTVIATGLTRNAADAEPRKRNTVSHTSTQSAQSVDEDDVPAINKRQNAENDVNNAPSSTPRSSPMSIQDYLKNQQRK

| SMILES | Kd [1] | Kd [2] | Kd [3] |
| --- | --- | --- | --- |
| NC(=O)c1c(F)ccc(OC(CCO)c2nc(-c3ccc(C(F)(F)F)cc3)c(Br)o2)c1F (stereo not drawn) [RUP2] | 230 ± 90 nM | – | – |
| C[C@@H]1ON(CCc2cn(CCC(Oc3ccc(F)c(C(N)=O)c3F)c3nc(-c4ccc(C(F)(F)F)cc4)c(Br)o3)cn2)C(=O)[C@H]1NC(=O)c1cccc(O)c1O (stereo partly drawn) [RUP7] | – | 26500 ± 3700 nM | 1800 ± 400 nM |
